What was measured:
Settings in all cases: 72 h
Caco-2 [1] = assay: cell viability relative to DMSO; higher = less toxic
Calu-3 [2] = assay: as above
HepG2 [3] = assay: as above
U2OS [4] = assay: as above
Vero E6 [5] = assay: as above
Calu-3 [6] = assay: relative viability EC50 (midpoint between 100% and the lowest measured viability); higher = less toxic
U2OS [7] = assay: as above
Vero E6 [8] = assay: as above
Caco-2 [9] = assay: drug sensitivity score (DSS) for viability; higher = more toxic; extreme values may be limits of the assay
Calu-3 [10] = assay: as above
HepG2 [11] = assay: as above
U2OS [12] = assay: as above
Vero E6 [13] = assay: as above
HepG2 [14] = assay: relative viability EC50 (midpoint between 100% and the lowest measured viability); higher = less toxic
Caco-2 [15] = assay: as above

Row | SMILES | cell viability (Caco-2 [1]; 1 nM) | cell viability (Caco-2 [1]; 10 nM) | cell viability (Caco-2 [1]; 100 nM) | cell viability (Caco-2 [1]; 1000 nM) | cell viability (Caco-2 [1]; 10000 nM) | cell viability (Calu-3 [2]; 1 nM) | cell viability (Calu-3 [2]; 10 nM) | cell viability (Calu-3 [2]; 100 nM) | cell viability (Calu-3 [2]; 1000 nM) | cell viability (Calu-3 [2]; 10000 nM) | cell viability (HepG2 [3]; 1 nM) | cell viability (HepG2 [3]; 10 nM) | cell viability (HepG2 [3]; 100 nM) | cell viability (HepG2 [3]; 1000 nM) | cell viability (HepG2 [3]; 10000 nM) | cell viability (U2OS [4]; 1 nM) | cell viability (U2OS [4]; 10 nM) | cell viability (U2OS [4]; 100 nM) | cell viability (U2OS [4]; 1000 nM) | cell viability (U2OS [4]; 10000 nM) | cell viability (Vero E6 [5]; 1 nM) | cell viability (Vero E6 [5]; 10 nM) | cell viability (Vero E6 [5]; 100 nM) | cell viability (Vero E6 [5]; 1000 nM) | cell viability (Vero E6 [5]; 10000 nM) | relative viability EC50 (Calu-3 [6]) | relative viability EC50 (U2OS [7]) | relative viability EC50 (Vero E6 [8]) | drug sensitivity score (Caco-2 [9]) | drug sensitivity score (Calu-3 [10]) | drug sensitivity score (HepG2 [11]) | drug sensitivity score (U2OS [12]) | drug sensitivity score (Vero E6 [13]) | relative viability EC50 (HepG2 [14]) | relative viability EC50 (Caco-2 [15])
1 | C#Cc1cccc(Nc2ncnc3cc(OCCOC)c(OCCOC)cc23)c1 [erlotinib] | 105% | 92.5% | 98.2% | 79.7% | 54.2% | 107% | 109% | 86.2% | 52% | 30.1% | 108% | 122% | 104% | 97.8% | 58.2% | 96.7% | 96.4% | 94.2% | 93.5% | 82.9% | 111% | 104% | 92% | 73.4% | 26.8% | 0.453 µM | > 10 µM | 1.36 µM | 4.7 | 10.6 | 2.4 | 0.4 | 7.1 |  | 
2 | C[C@]12CC[C@@H]3c4ccc(OC(=O)c5ccccc5)cc4CC[C@H]3[C@@H]1CC[C@@H]2O [estradiol-benzoate] |  |  |  |  |  | 101% | 96.4% | 98.6% | 94.3% | 88.6% | 104% | 118% | 103% | 105% | 97.8% | 108% | 105% | 106% | 103% | 99.8% |  |  |  |  |  | > 10 µM | > 10 µM |  |  | 0 | 0 | 0 |  | > 10 µM | 
3 | C=CC(C)(C)c1cc(/C=C/C(=O)c2ccc(O)cc2)c(OC)cc1O [licochalcone-A] | 92.4% | 83% | 105% | 88% | 70.8% | 96.1% | 100% | 106% | 98.1% | 91.7% | 99.9% | 100% | 74.4% | 99.2% | 78.4% | 95.7% | 96.5% | 100% | 95.8% | 88.7% | 103% | 101% | 90.2% | 98% | 102% | > 10 µM | > 10 µM | > 10 µM | 2.8 | 0 | 1.5 | 0.1 | 0 |  | 
4 | COc1ccc(C(C)(C)C)cc1CN[C@H]1C2CCN(CC2)[C@H]1C(c1ccccc1)c1ccccc1 [maropitant] | 103% | 96.4% | 101% | 103% | 67.4% | 108% | 104% | 110% | 101% | 1.7% | 107% | 104% | 98.9% | 100% | 11.6% | 99.5% | 98.9% | 101% | 93.9% | 67.3% | 100% | 106% | 100% | 101% | 62.6% | 3.24 µM |  |  | 1.3 | 5.4 | 4.9 | 2.5 | 1.7 | 3.17 µM | 
5 | C[C@H](N)[C@H](O)c1cccc(O)c1 [metaraminol] |  |  |  |  |  | 90.4% | 96.8% | 98.7% | 99.9% | 91.9% | 97.9% | 102% | 100% | 97.2% | 103% |  |  |  |  |  | 105% | 101% | 108% | 97.5% | 102% | > 10 µM |  | > 10 µM |  | 0 | 0 |  | 0 | > 10 µM | 
6 | COC(=O)c1ccccc1O [methyl-salicylate] | 103% | 99.4% | 101% | 81% | 101% |  |  |  |  |  | 112% | 101% | 102% | 90.9% | 102% | 98.4% | 97.2% | 101% | 101% | 102% | 110% | 104% | 102% | 102% | 97.3% |  | > 10 µM | > 10 µM | 0 |  | 0 | 0 | 0 | > 10 µM | > 10 µM
7 | CCCCCCCCOc1ccccc1C(=O)Nc1ccc(C(=O)OCC[N+](C)(CC)CC)cc1 [otilonium] | 89.1% | 99.4% | 97% | 97.5% | 74.7% | 97% | 104% | 91.1% | 96.7% | 89.3% | 109% | 96.2% | 108% | 96% | 83.8% | 101% | 106% | 98% | 101% | 90.7% | 103% | 97.2% | 106% | 97.8% | 94.1% | > 10 µM | > 10 µM | > 10 µM | 1.4 | 0 | 0.7 | 0 | 0 | > 10 µM | 
8 | COC(=O)Nc1nc2cc([S+]([O-])c3ccccc3)ccc2[nH]1 (stereo unspecified) [oxfendazole] | 97% | 108% | 104% | 94.7% | 97.5% |  |  |  |  |  | 90.6% | 92.5% | 98.2% | 98.1% | 75.3% | 101% | 96.6% | 103% | 98.1% | 103% | 101% | 106% | 100% | 104% | 90.6% |  | > 10 µM | > 10 µM | 0 |  | 1.2 | 0 | 0 | > 10 µM | > 10 µM
9 | OCCN1CCN(CCCN2c3ccccc3Sc3ccc(Cl)cc32)CC1 [perphenazine] | 99.4% | 100% | 94.8% | 72.7% | 69.8% | 95.6% | 93.5% | 106% | 101% | 77.2% | 114% | 100% | 94.7% | 96% | 59.3% | 101% | 97% | 101% | 99.3% | 90.6% | 107% | 96.4% | 100% | 99.8% | 71.5% | > 10 µM | > 10 µM |  | 5.1 | 0.7 | 2.7 | 0 | 1.2 |  | 
10 | O=C(C1CCCCC1)N1CC(=O)N2CCc3ccccc3C2C1 (stereo unspecified) [praziquantel] | 109% | 112% | 100% | 109% | 70.7% | 102% | 96.9% | 104% | 98.9% | 91.7% | 107% | 90.7% | 107% | 94.3% | 82.3% | 99% | 104% | 100% | 101% | 97.5% | 103% | 102% | 106% | 99.1% | 106% | > 10 µM | > 10 µM | > 10 µM | 0.9 | 0 | 1 | 0 | 0 | > 10 µM | 
11 | O=C(CCCCCCC(=O)Nc1cccnc1)NO [pyroxamide] | 102% | 92.9% | 94.3% | 91.6% | 47.6% |  |  |  |  |  | 106% | 99.6% | 98.7% | 76.8% | 7.6% | 102% | 97.8% | 101% | 90% | 12.6% | 99.6% | 103% | 96.3% | 99.9% | 46% |  | 2.22 µM | 3.14 µM | 4.2 |  | 8.7 | 6.5 | 2.9 | 1.54 µM | 1.93 µM
12 | C=CC(=O)Nc1cccc(Nc2nc(Nc3ccc(N4CCN(C(C)=O)CC4)cc3OC)ncc2C(F)(F)F)c1 [rociletinib] | 97.4% | 95.9% | 98.3% | 92.3% | 62.6% | 95.6% | 88.6% | 88.3% | 57.8% | 16.6% | 106% | 96.1% | 90.2% | 79.2% | 42.3% | 100% | 93.9% | 101% | 88% | 16.7% | 105% | 99.7% | 99.4% | 101% | 83% | 0.822 µM | 2.03 µM | > 10 µM | 3.1 | 10 | 5.3 | 6.6 | 0.3 | 1.38 µM | 
13 | Cc1ccnc(NS(=O)(=O)c2ccc(N)cc2)n1 [sulfamerazine] | 97% | 89.8% | 92% | 98.7% | 98.2% |  |  |  |  |  | 104% | 94.1% | 95.5% | 109% | 89.3% | 102% | 102% | 94.3% | 97.6% | 100% | 104% | 98.5% | 97.8% | 97.8% | 97.8% |  | > 10 µM | > 10 µM | 0 |  | 0 | 0 | 0 | > 10 µM | > 10 µM
14 | C[C@H](NC(=O)C(C)(C)Oc1ccc(C(F)(F)F)cn1)[C@@H](Cc1ccc(Cl)cc1)c1cccc(C#N)c1 [taranabant] | 97.3% | 108% | 105% | 94.4% | 73.4% | 96.5% | 95.5% | 94.4% | 107% | 86.6% | 105% | 106% | 111% | 103% | 72.4% | 100% | 95.8% | 96.3% | 95.2% | 90.9% | 103% | 96.5% | 99.6% | 97.8% | 85.5% | > 10 µM | > 10 µM | > 10 µM | 1.9 | 0 | 1 | 0 | 0.4 |  | 
15 | O[C@@H](COc1cccc2ncccc12)CN1CCN([C@@H]2c3ccccc3[C@@H]3[C@H](c4ccccc42)C3(F)F)CC1 [zosuquidar] | 99.5% | 102% | 87.8% | 90.2% | 55.2% | 102% | 108% | 91.5% | 96.1% | 85.7% | 104% | 98.8% | 95.6% | 92.4% | 63.1% | 99% | 99.4% | 99.4% | 98.2% | 76.2% | 104% | 105% | 98.7% | 98.5% | 72.6% | > 10 µM | > 10 µM |  | 3.6 | 0.1 | 3 | 1.1 | 1.3 |  | 
